# Experimental data: ChEMBL document CHEMBL1134900, “Substituted 3-amino biaryl propionic acids as potent VLA-4 antagonists” (Bioorg Med Chem Lett, 2002)
# Key:
# [1] = Compound was tested for its plasma half life in Sprague Dawley rats; conditions: rat
# [2] = Compound was tested for its plasma clearance rate in Sprague Dawley rats; conditions: rat
# [3] = Compound was tested for its plasma volume distribution in Sprague Dawley rats; conditions: rat
# [4] = in vivo; conditions: rhesus monkey, plasma, iv, 0.75 mg/kg
# Description: Compound was tested for its plasma clearance rate in rhesus monkey at a dose of 0.75 mg/kg iv/ 1.5 mg/kg po
SMILES,half-life [1],clearance [2],Vd [3],clearance [4]
COc1cccc(OC(F)(F)F)c1-c1ccc([C@@H](CC(=O)O)NC(=O)[C@]2(C)CCCN2S(=O)(=O)c2cc(Cl)cc(Cl)c2)cc1,1.6 h,24.9 mL/min/kg,1.1 L/kg,–
COc1cc(F)cc(-c2ccc([C@@H](CC(=O)O)NC(=O)[C@]3(C)CCCN3S(=O)(=O)c3cc(Cl)cc(Cl)c3)cc2)c1,0.9 h,2.5 mL/min/kg,0.12 L/kg,–
COc1cccc(OC)c1-c1ccc([C@@H](CC(=O)O)NC(=O)[C@@H]2CCCN2S(=O)(=O)c2cc(Cl)cc(Cl)c2)cc1,1.8 h,51.6 mL/min/kg,1.4 L/kg,–
COc1ccc([C@@H](CC(=O)O)NC(=O)[C@@H]2CCN2S(=O)(=O)c2cc(Cl)cc(Cl)c2)cc1,1.1 h,22.1 mL/min/kg,1.5 L/kg,–
COc1cccc(F)c1-c1ccc([C@@H](CC(=O)O)NC(=O)[C@@H]2CCCN2S(=O)(=O)c2cc(Cl)cc(Cl)c2)cc1,0.7 h,16.3 mL/min/kg,0.19 L/kg,–
COc1cccc(F)c1-c1ccc([C@@H](CC(=O)O)NC(=O)[C@]2(C)CCCN2S(=O)(=O)c2cc(Cl)cc(Cl)c2)cc1,1.3 h,2.3 mL/min/kg,0.13 L/kg,–
COc1ccc(F)cc1-c1ccc([C@@H](CC(=O)O)NC(=O)[C@]2(C)CCCN2S(=O)(=O)c2cc(Cl)cc(Cl)c2)cc1,1.2 h,2.3 mL/min/kg,0.08 L/kg,–

# The next lines start with the values.
half-life [1],clearance [2],Vd [3],clearance [4],SMILES
2.4 h,5 mL/min/kg,0.12 L/kg,22.1 mL/min/kg,COc1ccccc1-c1ccc([C@@H](CC(=O)O)NC(=O)[C@@H]2CCN2S(=O)(=O)c2cc(Cl)cc(Cl)c2)cc1
1.3 h,1.1 mL/min/kg,0.08 L/kg,–,COc1ccccc1-c1ccc([C@@H](CC(=O)O)NC(=O)[C@H]2CCCN2S(=O)(=O)c2cc(Cl)cc(Cl)c2)cc1
3 h,13.1 mL/min/kg,0.58 L/kg,–,COc1ccc(F)cc1-c1ccc([C@@H](CC(=O)O)NC(=O)[C@@H]2CCCN2S(=O)(=O)c2cc(Cl)cc(Cl)c2)cc1
–,14.6 mL/min/kg,–,–,COc1cc(F)ccc1-c1ccc([C@@H](CC(=O)O)NC(=O)[C@@H]2CCCN2S(=O)(=O)c2cc(Cl)cc(Cl)c2)cc1
